The experiment concerns the target human IRAK4 (Homo sapiens (Human), UniProt Q9NWZ3). As to the kind of experiment: IRAK4 kinase inhibition, Transcreener fluorescence polarization (ADP). The format is biochemical. The conditions noted are these: recombinant full-length His6-IRAK4 1.25 nM; 125 uM ATP; 125 uM peptide; 90 min; ATP Km 642 uM; read-out: IRAK4 Ki. How it is done:
Compounds were assayed for inhibition of human IRAK4 and IRAK1 catalytic activity using recombinant enzyme produced from insect cells. Full-length IRAK4 protein, carrying an N-terminal His6-Tag, was obtained from Life Technologies (Carlsbad, Calif., USA). The IRAK1 construct was produced internally and was comprised of IRAK1 residues Arg194 to Ser712, preceded by an NH2-terminal His6 tag and the coding sequence for glutathione-S-transferase.
Kinase activities were assayed using the Transcreener-Fluorecescence polarization platform (BelBrook Labs, Madison, Wis., USA) that measures amounts of the reaction product, ADP.
(Polarisation of emitted light reports the rotation of a fluorescent probe.)

The values that follow come from patent US11034698B2, “Pyrazolo[ 1,5a]pyrimidine derivatives as IRAK4 modulators” (priority 2017, dated 2021).

As a reminder, the Ki is a dissociation constant, usually derived from enzyme kinetics or from competition with a known ligand.

Counter-ions that a name gives are not always drawn.

human IRAK4, sequence (Q9NWZ3 whole entry, the tested form may be a part): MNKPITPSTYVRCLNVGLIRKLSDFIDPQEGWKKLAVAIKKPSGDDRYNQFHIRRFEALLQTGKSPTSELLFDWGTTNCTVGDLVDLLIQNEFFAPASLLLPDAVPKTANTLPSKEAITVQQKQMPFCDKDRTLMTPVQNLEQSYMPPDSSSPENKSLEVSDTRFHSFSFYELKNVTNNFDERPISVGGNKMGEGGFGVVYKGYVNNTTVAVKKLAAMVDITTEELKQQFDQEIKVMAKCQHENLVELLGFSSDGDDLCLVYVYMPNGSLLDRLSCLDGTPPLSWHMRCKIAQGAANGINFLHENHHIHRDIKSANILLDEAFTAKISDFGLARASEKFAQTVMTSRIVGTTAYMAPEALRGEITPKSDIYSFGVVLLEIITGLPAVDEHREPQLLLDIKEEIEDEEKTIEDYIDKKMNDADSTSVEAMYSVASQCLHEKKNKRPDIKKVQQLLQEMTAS

For the molecule `CC(C)(O)[C@H](F)CN1Cc2cc(NC(=O)c3cnn4cccnc34)c(O[C@H]3C[C@@H](Cl)C3)cc2C1=O` [Example 64, N-[6-(3-Chlorocyclobutoxy)-2-[(2R)-2-fluoro-3-hydroxy-3-methyl-butyl]-1-oxo-isoindolin-5-yl]pyrazolo[1,5-a]pyrimidine-3-carboxamide], the Ki was 0.51 nM.

Regarding `CC(C)(O)[C@H](F)CN1Cc2cc(NC(=O)c3cnn4cccnc34)c(OCC(F)F)cc2C1=O` [Example 65, (R)-N-(6-(2,2-Difluoroethoxy)-2-(2-fluoro-3-hydroxy-3-methylbutyl)-1-oxoisoindolin-5-yl)pyrazolo[1,5-a]pyrimidine-3-carboxamide], the Ki stood at 0.26 nM.

Take `CC(C)(O)[C@H](F)CN1Cc2cc(NC(=O)c3cnn4cccnc34)c(O[C@H]3CC[C@@H](O)C3)cc2C1=O` [Example 66, N-(2-((R)-2-Fluoro-3-hydroxy-3-methylbutyl)-6-(((1S,3R)-3-hydroxycyclopentyl)oxy)-1-oxoisoindolin-5-yl)pyrazolo[1,5-a]pyrimidine-3-carboxamide]: the Ki was determined as 0.67 nM.

For the molecule `CC(C)Oc1cc2c(cc1NC(=O)c1cnn3cccnc13)CN([C@H]1CCOC1)C2=O` [Example 68, (S)-N-(6-Isopropoxy-1-oxo-2-(tetrahydrofuran-3-yl)isoindolin-5-yl)pyrazolo[1,5-a]pyrimidine-3-carboxamide], the Ki was 2.5 nM.

With `CC(C)(O)[C@H](F)CN1Cc2cc(NC(=O)c3cnn4cccnc34)c(OC3CCNCC3)cc2C1=O` [Example 70, (R)-N-(2-(2-Fluoro-3-hydroxy-3-methylbutyl)-1-oxo-6-(piperidin-4-yloxy)isoindolin-5-yl)pyrazolo[1,5-a]pyrimidine-3-carboxamide], the Ki is 0.7 nM.

Take `CC(C)(O)[C@H](F)CN1Cc2cc(NC(=O)c3cnn4cccnc34)c(OC[C@@H]3CNC(=O)C3)cc2C1=O` [Example 71, N-[2-[(2R)-2-Fluoro-3-hydroxy-3-methyl-butyl]-1-oxo-6-[[(3S)-5-oxopyrrolidin-3-yl]methoxy]isoindolin-5-yl]pyrazolo[1,5-a]pyrimidine-3-carboxamide]: the Ki is 3.2 nM.

With `CC(C)(O)[C@H](F)CN1Cc2cc(NC(=O)c3cnn4cccnc34)c(OC3CNC3)cc2C1=O` [Example 73, N-[6-(Azetidin-3-yloxy)-2-[(2R)-2-fluoro-3-hydroxy-3-methyl-butyl]-1-oxo-isoindolin-5-yl]pyrazolo[1,5-a]pyrimidine-3-carboxamide hydrochloride], the Ki was determined as 3.7 nM.

`CC(C)(O)[C@H](F)CN1Cc2cc(NC(=O)c3cnn4cccnc34)c(OC3CC3)cc2C1=O` [Example 77, (R)—N-(6-Cyclopropoxy-2-(2-fluoro-3-hydroxy-3-methylbutyl)-1-oxoisoindolin-5-yl)pyrazolo[1,5-a]pyrimidine-3-carboxamide]: the Ki amounted to 0.63 nM.

For the molecule `CC(C)Oc1cc2c(cc1NC(=O)c1cnn3cccnc13)CN(C[C@@H](F)C(C)(C)O)C2=O` [Example 78, N-[2-[(2R)-2-Fluoro-3-hydroxy-3-methyl-butyl]-6-isopropoxy-1-oxo-isoindolin-5-yl]pyrazolo[1,5-a]pyrimidine-3-carboxamide], the Ki is 0.17 nM.

In the case of `CC(C)(O)[C@H](F)CN1Cc2cc(NC(=O)c3cnn4cccnc34)c(OCC3COC3)cc2C1=O` [Example 79, (R)-N-(2-(2-Fluoro-3-hydroxy-3-methylbutyl)-6-(oxetan-3-ylmethoxy)-1-oxoisoindolin-5-yl)pyrazolo[1,5-a]pyrimidine-3-carboxamide], the Ki is 0.97 nM.

For the molecule `CC(C)(O)[C@H](F)CN1Cc2cc(NC(=O)c3cnn4cccnc34)c(OC3CCCC3)cc2C1=O` [Example 80, (R)-N-(6-(Cyclopentyloxy)-2-(2-fluoro-3-hydroxy-3-methylbutyl)-1-oxoisoindolin-5-yl)pyrazolo[1,5-a]pyrimidine-3-carboxamide], the Ki was found to be 0.97 nM.

As for `Cc1cnc2c(C(=O)Nc3cc4c(cc3OC(C)C)C(=O)N(C[C@@H](F)C(C)(C)O)C4)cnn2c1` [Example 81, (R)-N-(2-(2-Fluoro-3-hydroxy-3-methylbutyl)-6-isopropoxy-1-oxoisoindolin-5-yl)-6-methylpyrazolo[1,5-a]pyrimidine-3-carboxamide], the inhibition constant Ki is 0.42 nM.

As for `CCOc1cc2c(cc1NC(=O)c1cnn3cccnc13)CN(C[C@@H](F)C(C)(C)O)C2=O` [Example 82, (R)-N-(6-Ethoxy-2-(2-fluoro-3-hydroxy-3-methylbutyl)-1-oxoisoindolin-5-yl)pyrazolo[1,5-a]pyrimidine-3-carboxamide], the Ki is 0.37 nM.

Consider `CC(C)(O)[C@H](F)CN1Cc2cc(NC(=O)c3cnn4cccnc34)c(O[C@@H]3CCOC3)cc2C1=O` [Example 83, N-(2-((R)-2-Fluoro-3-hydroxy-3-methylbutyl)-1-oxo-6-(((R)-tetrahydrofuran-3-yl)oxy)isoindolin-5-yl)pyrazolo[1,5-a]pyrimidine-3-carboxamide], for which the Ki came to 0.71 nM.

Regarding `CC(C)(O)[C@H](F)CN1Cc2cc(NC(=O)c3cnn4cccnc34)c(OC3CCOCC3)cc2C1=O` [Example 85, (R)-N-(2-(2-Fluoro-3-hydroxy-3-methylbutyl)-1-oxo-6-((tetrahydro-2H-pyran-4-yl)oxy)isoindolin-5-yl)pyrazolo[1,5-a]pyrimidine-3-carboxamide], the Ki was determined as 1.8 nM.

For `COc1cc2c(cc1NC(=O)c1cnn3cccnc13)CN(C[C@@H](F)C(C)(C)O)C2=O` [Example 86, (R)-N-(2-(2-Fluoro-3-hydroxy-3-methylbutyl)-6-methoxy-1-oxoisoindolin-5-yl)pyrazolo[1,5-a]pyrimidine-3-carboxamide], the Ki stood at 1.3 nM.

For `CC(C)(O)[C@H](F)CN1Cc2cc(NC(=O)c3cnn4cccnc34)c(OC3COC3)cc2C1=O` [Example 87, (R)-N-(2-(2-Fluoro-3-hydroxy-3-methylbutyl)-6-(oxetan-3-yloxy)-1-oxoisoindolin-5-yl)pyrazolo[1,5-a]pyrimidine-3-carboxamide], the Ki turned out to be 0.59 nM.

For `CC(C)(O)[C@H](F)CN1Cc2cc(NC(=O)c3cnn4cccnc34)c(OC(F)F)cc2C1=O` [Example 88, (R)-N-(6-(Difluoromethoxy)-2-(2-fluoro-3-hydroxy-3-methylbutyl)-1-oxoisoindolin-5-yl)pyrazolo[1,5-a]pyrimidine-3-carboxamide], the Ki stood at 0.5 nM.

`Cn1cc(Oc2cc3c(cc2NC(=O)c2cnn4cccnc24)CN(C[C@@H](F)C(C)(C)O)C3=O)cn1` [Example 89, (R)-N-(2-(2-Fluoro-3-hydroxy-3-methylbutyl)-6-((1-methyl-1H-pyrazol-4-yl)oxy)-1-oxoisoindolin-5-yl)pyrazolo[1,5-a]pyrimidine-3-carboxamide]: the Ki worked out at 1.3 nM.

For the molecule `CC(C)(C)Oc1cc2c(cc1NC(=O)c1cnn3cccnc13)CN(C[C@@H](F)C(C)(C)O)C2=O` [Example 90, (R)-N-(6-(tert-Butoxy)-2-(2-fluoro-3-hydroxy-3-methylbutyl)-1-oxoisoindolin-5-yl)pyrazolo[1,5-a]pyrimidine-3-carboxamide], the Ki turned out to be 0.61 nM.

With `CNc1cc2c(cc1NC(=O)c1cnn3cccnc13)CN(C[C@@H](F)C(C)(C)O)C2=O` [Example 91, N-[2-[(2R)-2-Fluoro-3-hydroxy-3-methyl-butyl]-6-(methylamino)-1-oxo-isoindolin-5-yl]pyrazolo[1,5-a]pyrimidine-3-carboxamide], the Ki is 280 nM.

Consider `O=C(Nc1cc2c(cc1N1CCOCC1)C(=O)N(CC1CCOCC1)C2)c1cnn2cccnc12` [Example 92, N-[6-Morpholino-1-oxo-2-(tetrahydropyran-4-ylmethyl)isoindolin-5-yl]pyrazolo[1,5-a]pyrimidine-3-carboxamide], for which the Ki came to 3.7 nM.

In the case of `O=C(Nc1cc2c(cc1N1CCOCC1)C(=O)N(CCN1CCCC1)C2)c1cnn2cccnc12` [Example 93, N-[6-Morpholino-1-oxo-2-(2-pyrrolidin-1-ylethyl)isoindolin-5-yl]pyrazolo[1,5-a]pyrimidine-3-carboxamide], the Ki came to 22 nM.

For the molecule `O=C(Nc1cc2c(cc1N1CCOCC1)C(=O)N(C1CC3(COC3)C1)C2)c1cnn2cccnc12` [Example 94, N-[6-Morpholino-2-(2-oxaspiro[3.3]heptan-6-yl)-1-oxo-isoindolin-5-yl]pyrazolo[1,5-a]pyrimidine-3-carboxamide], the Ki stood at 4.9 nM.

Take `CC(C)N1Cc2cc(NC(=O)c3cnn4cccnc34)c(N(C)C)cc2C1=O` [Example 95, N-[6-(Dimethylamino)-2-isopropyl-1-oxo-isoindolin-5-yl]pyrazolo[1,5-a]pyrimidine-3-carboxamide]: the Ki was found to be 1.9 nM.

Take `CC(C)(O)[C@H](F)CN1Cc2cc(NC(=O)c3cnn4cccnc34)c(N3CCC(CC(F)F)CC3)cc2C1=O` [Example 96, (R)-N-(6-(4-(2,2-Difluoroethyl)piperidin-1-yl)-2-(2-fluoro-3-hydroxy-3-methylbutyl)-1-oxoisoindolin-5-yl)pyrazolo[1,5-a]pyrimidine-3-carboxamide]: the Ki came out at 1.5 nM.

Consider `CC(C)N1Cc2cc(NC(=O)c3cnn4cccnc34)c(C3CC3)cc2C1=O` [Example 97, N-(6-Cyclopropyl-2-isopropyl-1-oxoisoindolin-5-yl)pyrazolo[1,5-a]pyrimidine-3-carboxamide], for which the Ki was found to be 5.2 nM.

In the case of `CC(C)(O)[C@H](F)CN1Cc2cc(NC(=O)c3cnn4cccnc34)c(C#N)cc2C1=O` [Example 98, (R)—N-(6-Cyano-2-(2-fluoro-3-hydroxy-3-methylbutyl)-1-oxoisoindolin-5-yl)pyrazolo[1,5-a]pyrimidine-3-carboxamide], the Ki stood at 8.5 nM.
